Where “and” joins values, the source holds several entries; their conditions need not be identical. Equal entries are not always repeated. Inconclusive results and toxic doses are left out. Cut-off read from the data, not from the text of the source: active = T/C of 150% or more; inactive = T/C below 125%.
Test system: L1210 leukemia ip in BDF1 mice, survival T/C
Assay: NCI In Vivo Anticancer Drug Screen. Data for tumor model L1210 Leukemia (intraperitoneal) in B6D2F1 (BDF1) mice
Details: endpoint: mean survival time, higher = longer survival
Procedure, shortened: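 Value reflects the ratio of survival in compound-treated mice to survival in vehicle-treated controls, with both groups carrying the same transplanted tumor.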

Measured: T/C

O/C(=C\C(=S)S)c1ccc(Cl)cc1
inactive: dose: 0.06 mg/kg/injection, schedule: Q01DX009 (ip), vehicle: saline with Tween-80 103 % of control | dose: 0.12 mg/kg/injection, schedule: Q01DX009 (ip), vehicle: saline with Tween-80 105 % of control | dose: 0.25 mg/kg/injection, schedule: Q01DX009 (ip), vehicle: saline with Tween-80 98 % of control | dose: 0.5 mg/kg/injection, schedule: Q01DX009 (ip), vehicle: saline with Tween-80 112 % of control and 120 % of control | dose: 1.0 mg/kg/injection, schedule: Q01DX009 (ip), vehicle: saline with Tween-80 102 % of control and 107 % of control | dose: 1.0 mg/kg/injection, schedule: Q04DX003 (ip), vehicle: saline with Tween-80 103 % of control | dose: 2.0 mg/kg/injection, schedule: Q01DX009 (ip), vehicle: saline with Tween-80 107 % of control | dose: 2.0 mg/kg/injection, schedule: Q04DX003 (ip), vehicle: saline with Tween-80 97 % of control | dose: 4.0 mg/kg/injection, schedule: Q04DX003 (ip), vehicle: saline with Tween-80 97 % of control | dose: 8.0 mg/kg/injection, schedule: Q04DX003 (ip), vehicle: saline with Tween-80 105 % of control

CNC(=O)C1C(c2ccc(OC)cc2)C1c1ccc(OC)cc1 (stereo not given)
inactive: dose: 12.5 mg/kg/injection, schedule: Q04DX002 (ip), vehicle: Klucel (hydroxypropylcellulose) (HPC) 92 % of control | dose: 25.0 mg/kg/injection, schedule: Q04DX002 (ip), vehicle: Klucel (hydroxypropylcellulose) (HPC) 92 % of control | dose: 50.0 mg/kg/injection, schedule: Q04DX002 (ip), vehicle: Klucel (hydroxypropylcellulose) (HPC) 95 % of control

Brc1cscc1-c1cccc2ccccc12
inactive: dose: 100.0 mg/kg/injection, schedule: Q01DX009 (ip), vehicle: saline with Tween-80 86 % of control | dose: 200.0 mg/kg/injection, schedule: Q01DX009 (ip), vehicle: saline with Tween-80 86 % of control

C=CCN(CC=C)CCNc1nc(C(Cl)(Cl)Cl)nc2ccc(Cl)cc12
inactive: dose: 100.0 mg/kg/injection, schedule: Q04DX003 (ip), vehicle: saline with Tween-80 102 % of control | dose: 200.0 mg/kg/injection, schedule: Q04DX003 (ip), vehicle: saline with Tween-80 87 % of control

SCc1ccccn1
inactive: dose: 30.0 mg/kg/injection, schedule: Q01DX015 (ip), vehicle: saline 103 % of control | dose: 60.0 mg/kg/injection, schedule: Q01DX015 (ip), vehicle: saline 94 % of control | dose: 100.0 mg/kg/injection, schedule: Q01DX001 (ip), vehicle: saline 107 % of control | dose: 120.0 mg/kg/injection, schedule: Q01DX015 (ip), vehicle: saline 120 % of control | dose: 200.0 mg/kg/injection, schedule: Q01DX001 (ip), vehicle: saline 107 % of control | dose: 240.0 mg/kg/injection, schedule: Q01DX015 (ip), vehicle: saline 111 % of control | dose: 400.0 mg/kg/injection, schedule: Q01DX001 (ip), vehicle: saline 107 % of control | dose: 400.0 mg/kg/injection, schedule: Q01DX015 (ip), vehicle: saline 90 % of control
